Results from paper PMC3748964 (Regulatory peptides, 2013).

Molecular target: MT1 melatonin receptor (Oryctolagus cuniculus, UniProt G1U149)
Assay type: cell-based

Chain of MT1 melatonin receptor (G1U149 1-312): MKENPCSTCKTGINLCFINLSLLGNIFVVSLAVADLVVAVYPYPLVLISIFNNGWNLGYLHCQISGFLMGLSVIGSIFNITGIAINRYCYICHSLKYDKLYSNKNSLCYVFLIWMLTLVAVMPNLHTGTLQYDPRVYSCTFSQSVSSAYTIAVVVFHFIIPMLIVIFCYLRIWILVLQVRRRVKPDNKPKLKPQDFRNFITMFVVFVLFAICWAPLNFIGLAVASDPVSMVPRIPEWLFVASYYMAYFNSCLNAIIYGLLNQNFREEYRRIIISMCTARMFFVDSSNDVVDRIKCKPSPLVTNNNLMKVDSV

SMILES: COc1ccc2[nH]cc(CCNC(C)=O)c2c1 [Melatonin]
- EC50: 4 ± 1 nM
